Format in all cases: cell-based
In one assay the target is T1, TRPML3 (Homo sapiens, UniProt Q8TDD5).
T1 construct: expressed in transfected cells
T1 sequence (Q8TDD5 1-553): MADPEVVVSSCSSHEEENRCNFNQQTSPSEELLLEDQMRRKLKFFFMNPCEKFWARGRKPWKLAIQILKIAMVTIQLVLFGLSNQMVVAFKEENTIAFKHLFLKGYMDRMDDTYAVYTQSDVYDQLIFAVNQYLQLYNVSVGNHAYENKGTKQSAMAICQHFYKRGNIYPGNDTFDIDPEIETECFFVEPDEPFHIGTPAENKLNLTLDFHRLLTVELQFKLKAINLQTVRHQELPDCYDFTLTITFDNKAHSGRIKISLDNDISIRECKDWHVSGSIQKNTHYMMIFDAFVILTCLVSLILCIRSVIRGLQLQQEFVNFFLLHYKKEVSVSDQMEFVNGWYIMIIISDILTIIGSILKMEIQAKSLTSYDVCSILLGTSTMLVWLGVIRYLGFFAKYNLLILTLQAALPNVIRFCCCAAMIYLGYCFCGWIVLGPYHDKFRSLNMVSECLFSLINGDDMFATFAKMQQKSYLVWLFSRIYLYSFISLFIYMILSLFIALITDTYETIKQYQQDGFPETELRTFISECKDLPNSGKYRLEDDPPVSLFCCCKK
The assay can be described thus: Fluorescent TRPML3 assay (performed as for TRPML1, substituting the TRPML3 subtype). The method, boiled down:
(§1)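 Doxycycline-induced (0.5 ug/mL) HEK-293 Trex cells stably expressing surface-directed mutant channel were loaded with 1 micromolar Fluo4-AM, resuspended in Ringer's with 10 mM calcium and added to compound plates. Fluorescence (ex 480, em 540 nm) gave percent activity versus on-plate controls; EC50 by non-linear regression.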

The target in another assay is TRPML1 (Homo sapiens, UniProt Q9GZU1). The assay is described as follows: Fluorescent TRPML1 assay (Fluo4-AM calcium fluorescence in doxycycline-induced HEK-293 Trex cells). The method, boiled down: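 HEK-293 Trex cells stably expressing surface-directed mutant human TRPML1, induced with 0.5 µg/mL doxycycline overnight, were loaded with 1 µM Fluo4-AM and added to compound (6 nM–20 µM final, half-log steps, triplicate) in Ringer's with 10 mM calcium. Fluorescence ex 480/em 540; EC50 by non-linear regression versus plate controls.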
Chain of TRPML1 (Q9GZU1 whole entry L15A/L16A/L577A/L578A, form open): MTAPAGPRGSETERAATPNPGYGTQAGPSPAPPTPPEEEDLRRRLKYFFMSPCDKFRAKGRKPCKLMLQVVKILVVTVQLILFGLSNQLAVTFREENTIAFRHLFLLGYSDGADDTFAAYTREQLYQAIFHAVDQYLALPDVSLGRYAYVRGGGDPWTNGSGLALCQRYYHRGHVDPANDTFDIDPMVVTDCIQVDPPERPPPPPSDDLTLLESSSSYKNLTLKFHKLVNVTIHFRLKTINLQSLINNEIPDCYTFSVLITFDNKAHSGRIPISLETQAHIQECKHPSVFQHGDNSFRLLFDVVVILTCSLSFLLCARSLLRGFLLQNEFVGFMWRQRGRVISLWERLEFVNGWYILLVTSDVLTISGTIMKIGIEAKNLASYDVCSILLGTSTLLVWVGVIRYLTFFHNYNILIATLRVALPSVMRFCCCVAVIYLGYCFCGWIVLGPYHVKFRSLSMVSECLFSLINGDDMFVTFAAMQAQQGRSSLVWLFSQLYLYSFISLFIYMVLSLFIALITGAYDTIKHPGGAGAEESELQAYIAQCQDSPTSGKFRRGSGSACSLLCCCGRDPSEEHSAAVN

The next assay addresses T2, TRPML2 (Homo sapiens, UniProt Q8IZK6).
T2 construct: expressed in transfected cells
T2 sequence (Q8IZK6 1-566): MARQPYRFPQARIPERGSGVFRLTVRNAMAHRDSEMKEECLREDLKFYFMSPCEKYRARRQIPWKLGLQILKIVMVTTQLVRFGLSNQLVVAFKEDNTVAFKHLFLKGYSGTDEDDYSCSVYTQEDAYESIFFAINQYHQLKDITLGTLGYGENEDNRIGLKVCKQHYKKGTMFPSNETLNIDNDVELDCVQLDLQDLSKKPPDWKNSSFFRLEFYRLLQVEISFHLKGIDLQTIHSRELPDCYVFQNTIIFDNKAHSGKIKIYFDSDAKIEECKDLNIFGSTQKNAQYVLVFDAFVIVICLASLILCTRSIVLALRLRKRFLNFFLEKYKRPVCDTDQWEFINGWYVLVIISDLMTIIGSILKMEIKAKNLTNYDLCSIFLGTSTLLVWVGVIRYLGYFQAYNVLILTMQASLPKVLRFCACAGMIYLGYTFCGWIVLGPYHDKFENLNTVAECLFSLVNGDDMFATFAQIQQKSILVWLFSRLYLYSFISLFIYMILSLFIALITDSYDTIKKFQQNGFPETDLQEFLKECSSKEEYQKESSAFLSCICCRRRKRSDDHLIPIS
The assay can be described thus: Fluorescent TRPML2 assay (performed as for TRPML1, substituting the TRPML2 subtype). Summed up: as §1

Read-outs that look alike come from different tables or passages of the source.

The term EC50 denotes the midpoint of the concentration-response curve.

Regarding `C[C@@H]1CN(c2ncnc3c2c(N2CCC2)cn3-c2cccc(F)c2)[C@@H](C)CN1C(=O)OC(C)(C)C` [Compound 635, tert-butyl (2R,5S)-4-(5-(azetidin-1-yl)-7-(3-fluorophenyl)-7H-pyrrolo[2,3-d]pyrimidin-4-yl)-2,5-dimethylpiperazine-1-carboxylate], the EC50 was 100 to 500 nM on TRPML3, under 100 nM on TRPML1 and 100 to 500 nM on TRPML2.

For `CCc1ccnc(-n2cc(C3CC3)c3c(N4C[C@@H](C)N(C(=O)OC(C)(C)C)C[C@@H]4C)ncnc32)c1` [Compound 717, tert-butyl (2R,5S)-4-(5-cyclopropyl-7-(4-ethylpyridin-2-yl)-7H-pyrrolo[2,3-d]pyrimidin-4-yl)-2,5-dimethylpiperazine-1-carboxylate], the concentration for a half-maximal effect (EC50) at TRPML3 is under 100 nM; at TRPML1, under 100 nM; at TRPML2, 100 to 500 nM.

`COc1ccnc(-n2cc(C(F)(F)F)c3c(N4C[C@@H](C)N(C(=O)OC(C)(C)C)C[C@@H]4C)ncnc32)c1` [Compound 664, tert-butyl (2R,5S)-4-(7-(4-methoxypyridin-2-yl)-5-(trifluoromethyl)-7H-pyrrolo[2,3-d]pyrimidin-4-yl)-2,5-dimethylpiperazine-1-carboxylate]: the EC50 was under 100 nM at TRPML3, under 100 nM on TRPML1 and 500 to 2000 nM on TRPML2.

Take `C[C@H]1CN(C(=O)OC(C)(C)C)CCN1c1ncnc2c1c(-c1ccccc1F)cn2-c1ncc(C#N)s1` [Compound 428, tert-butyl (S)-4-(7-(5-cyanothiazol-2-yl)-5-(2-fluorophenyl)-7H-pyrrolo[2,3-d]pyrimidin-4-yl)-3-methylpiperazine-1-carboxylate]: the EC50 at TRPML3 (fluorescent calcium assay), at TRPML1 (fluorescent calcium assay) and on TRPML2 (fluorescent calcium assay) was under 100 nM in each case.

On to `[2H]C([2H])([2H])[C@@H]1CN(c2ncnc3c2c(C2CC2)cn3-c2cc(C#N)ccn2)[C@@H](C)CN1C(=O)OC(C)(C)C` [Compound 711, tert-butyl (2R,5S)-4-(7-(4-cyanopyridin-2-yl)-5-cyclopropyl-7H-pyrrolo[2,3-d]pyrimidin-4-yl)-5-methyl-2-(methyl-d3)piperazine-1-carboxylate], for which the results for the EC50 at TRPML3, at TRPML1 and at TRPML2 were 100 to 500 nM, under 100 nM and 500 to 2000 nM, respectively.

In the case of `[2H]C([2H])([2H])C(OC(=O)N1C[C@H](C)N(c2ncnc3c2c(C(F)(F)F)cn3-c2cc(C#N)ccn2)C[C@@H]1C)(C([2H])([2H])[2H])C([2H])([2H])[2H]` [Compound 603, 2-(methyl-d3)propan-2-yl-1,1,1,3,3,3-d6 (2S,5S)-4-(7-(4-cyanopyridin-2-yl)-5-(trifluoromethyl)-7H-pyrrolo[2,3-d]pyrimidin-4-yl)-2,5-dimethylpiperazine-1-carboxylate], the half-maximal effective concentration (EC50) was under 100 nM at TRPML3, under 100 nM at TRPML1 and 500 to 2000 nM at TRPML2.

As for `C[C@@H]1CN(c2ncnc3c2c(-c2ccccn2)cn3-c2cc(F)cc(Cl)c2)CCN1C(=O)OC(C)(C)C` [Compound 221, tert-butyl (R)-4-(7-(3-chloro-5-fluorophenyl)-5-(pyridin-2-yl)-7H-pyrrolo[2,3-d]pyrimidin-4-yl)-2-methylpiperazine-1-carboxylate], the EC50 on TRPML3 (fluorescent calcium assay) is under 100 nM; on TRPML1 (fluorescent calcium assay), under 100 nM; at TRPML2 (fluorescent calcium assay), 100 to 500 nM.

Consider `Cc1cn(-c2cc(F)cc(Cl)c2)c2ncnc(N3CCN(C(=O)OC(C)(C)C)C[C@@H]3C)c12` [Compound 693, tert-butyl (S)-4-(7-(3-chloro-5-fluorophenyl)-5-methyl-7H-pyrrolo[2,3-d]pyrimidin-4-yl)-3-methylpiperazine-1-carboxylate], for which the EC50 on TRPML3 is under 100 nM; on TRPML1 it was under 100 nM; on TRPML2 it was 100 to 500 nM.

With `CCOC(=O)N1C[C@H](C)N(c2ncnc3c2c(C2CC2)cn3-c2cccc(Cl)c2)C[C@H]1C` [Compound 132, Ethyl (2R,5S)-4-(7-(3-chlorophenyl)-5-cyclopropyl-7H-pyrrolo[2,3-d]pyrimidin-4-yl)-2,5-dimethylpiperazine-1-carboxylate], the EC50 is 100 to 500 nM at TRPML3 (fluorescent calcium assay), under 100 nM on TRPML1 (fluorescent calcium assay) and over 2000 nM on TRPML2 (fluorescent calcium assay).

As to `C[C@@H]1CN(c2ncnc3c2c(C2CC2)cn3-c2cccc(F)c2F)CCN1C(=O)OC(C)(C)C` [Compound 205, tert-butyl (R)-4-(5-cyclopropyl-7-(2,3-difluorophenyl)-7H-pyrrolo[2,3-d]pyrimidin-4-yl)-2-methylpiperazine-1-carboxylate], the EC50 on TRPML3 (fluorescent calcium assay) is 100 to 500 nM; at TRPML1 (fluorescent calcium assay) it was 100 to 500 nM; on TRPML2 (fluorescent calcium assay), 500 to 2000 nM.

`CC(C)(C)OC(=O)N1CCN(c2nccc3c2c(C2CC2)cn3-c2ccc(Cl)cc2)CC1` [Compound 156, tert-butyl 4-(1-(4-chlorophenyl)-3-cyclopropyl-1H-pyrrolo[3,2-c]pyridin-4-yl)piperazine-1-carboxylate]: the figures for the EC50 on TRPML3 (fluorescent calcium assay), on TRPML1 (fluorescent calcium assay) and on TRPML2 (fluorescent calcium assay) were under 100 nM, 100 to 500 nM and 100 to 500 nM, respectively.

As to `C[C@@H]1CN(c2ncnc3c2c(C2CC2)cn3-c2cc(C#N)ccn2)CCN1C(=O)OCC(F)(F)F` [Compound 377, 2,2,2-trifluoroethyl (R)-4-(7-(4-cyanopyridin-2-yl)-5-cyclopropyl-7H-pyrrolo[2,3-d]pyrimidin-4-yl)-2-methylpiperazine-1-carboxylate], the EC50 is under 100 nM on TRPML3 (fluorescent calcium assay), under 100 nM on TRPML1 (fluorescent calcium assay) and 100 to 500 nM at TRPML2 (fluorescent calcium assay).

As to `Cc1c(Cl)cccc1-n1cc(-c2ccccn2)c2c(N3CCN(C(=O)OC(C)(C)C)CC3C)ncnc21` (stereo not drawn) [Compound 160, tert-butyl 4-(7-(3-chloro-2-methylphenyl)-5-(pyridin-2-yl)-7H-pyrrolo[2,3-d]pyrimidin-4-yl)-3-methylpiperazine-1-carboxylate], the EC50 on TRPML3 (fluorescent calcium assay) is under 100 nM; on TRPML1 (fluorescent calcium assay), 100 to 500 nM; at TRPML2 (fluorescent calcium assay) it was 100 to 500 nM.

Turning to `[2H]C([2H])([2H])[C@@H]1CN(c2ncnc3c(-c4cc(C#N)ccn4)cn(-c4ccccc4F)c23)[C@@H](C)CN1C(=O)OC(C)(C)C` [Compound 709, tert-butyl (2R,5S)-4-(7-(4-cyanopyridin-2-yl)-5-(2-fluorophenyl)-5H-pyrrolo[3,2-d]pyrimidin-4-yl)-5-methyl-2-(methyl-d3)piperazine-1-carboxylate], the half-maximal effective concentration (EC50) at TRPML3, on TRPML1 and at TRPML2 was under 100 nM each time.

As for `Cc1ccnc(-n2cc(C3CC3)c3c(N4C[C@@H](C)N(C(=O)OC(C)(C)C)C[C@@H]4C)ncnc32)c1` [Compound 644, tert-butyl (2R,5S)-4-(5-cyclopropyl-7-(4-methylpyridin-2-yl)-7H-pyrrolo[2,3-d]pyrimidin-4-yl)-2,5-dimethylpiperazine-1-carboxylate], the EC50 on TRPML3 is 100 to 500 nM; on TRPML1, 100 to 500 nM; on TRPML2 it was 500 to 2000 nM.

As for `CC1CN(C(=O)OC(C)(C)C)CCN1c1nccc2c1c(-c1ccccn1)cn2-c1cccc(Cl)c1` (stereo not drawn) [Compound 187, tert-butyl 4-(1-(3-chlorophenyl)-3-(pyridin-2-yl)-1H-pyrrolo[3,2-c]pyridin-4-yl)-3-methylpiperazine-1-carboxylate], the EC50 on TRPML3 (fluorescent calcium assay), on TRPML1 (fluorescent calcium assay) and at TRPML2 (fluorescent calcium assay) was 100 to 500 nM in each case.

These data come from patent US20250136606A1, “MODULATORS OF TRPML, THEIR COMPOSITIONS AND METHODS OF USE” (Caraway Therapeutics, Inc., priority 2021, published 2025).
